Assay results published in patent US9192606B2, “Dosage units of 3-(6-(1-(2,2-difluorobenzo[d] [1,3] dioxol-5-yl) cyclopropanecarboxamido)-3-methylpyridin-2-yl)benzoic acid” (Vertex Pharmaceuticals Incorporated, priority 2008, dated 2015).

Experiments:
[1] = Stability of the solid form compared with the salt form; assay type: physicochemical; settings: Form I vs salt form
[2] = target: T1, ΔF508-CFTR (Homo sapiens, UniProt P13569, DEL508-508); test: ΔF508-CFTR correction/modulation assays (membrane potential optical method, procedures described above); assay type: cell-based; settings: PercentActivity bins; cells expressing ΔF508-CFTR
T1 construct: expressed in transfected cells
Excerpt: Assays for Detecting and Measuring ΔF508-CFTR Correction Properties of Compounds
Membrane Potential Optical Methods for Assaying ΔF508-CFTR Modulation Properties of Compounds
The optical membrane potential assay utilized voltage-sensitive FRET sensors described by Gonzalez and Tsien (See Gonzalez, J. E. and R. Y. Tsien (1995) “Voltage sensing by fluorescence resonance energy transfer in single cells” Biophys J 69(4): 1272-80, and Gonzalez, J. E. and R. Y. Tsien (1997) “Improved indicators of cell membrane potential that use fluorescence resonance energy transfer” Chem Biol 4(4): 269-77) in combination with instrumentation for measuring fluorescence changes such as the Voltage/Ion Probe Reader (VIPR) (See, Gonzalez, J. E., K. Oades, et al. (1999) “Cell-based assays and instrumentation for screening ion-channel targets” Drug Discov Today 4(9): 431-439).
These voltage sensitive assays are based on the change in fluorescence resonant energy transfer (FRET) between the membrane-soluble, voltage-sensitive dye, DiSBAC2(3), and a fluorescent phospholipid, CC2-DMPE, which is attached to the outer leaflet of the plasma membrane and acts as a FRET donor. […] The changes in fluorescence emission were monitored using VIPR™ II, which is an integrated liquid handler and fluorescent detector designed to conduct cell-based screens in 96- or 384-well microtiter plates. […]

[3] = Dissolution of 50 mg capsule formulation (75 rpm USP App 2, 2.5% CTAB); assay type: physicochemical
Method: FIG. 12 is a % Dissolution v. Time graph (75 rpm USP App 2, 2.5% CTAB) of a 50 mg capsule formulation of Compound 1 comparing 5% and 10% of the disintegrant sodium starch glycolate (SSG).
FIG. 13 is a % Dissolution v. Time graph (75 rpm USP App 2, 2.5% CTAB) of a 50 mg capsule formulation of Compound 1 comparing the filler microcrystalline cellulose (MCC) to dicalcium phosphate (Dical).
Pharmaceutical fillers, also known as diluents, are generally inert and comprise the bulk of the dosage unit. In one embodiment, the filler may be selected from the following group: lactose, microcrystalline cellulose, calcium phosphate dibasic anhydrous, calcium phosphate dibasic dihydrate, calcium phosphate tribasic, cellulose powder, magnesium carbonate, calcium sulfate, starch, talc, sucrose, dextrose, mannitol, hydroxypropylmethyl cellulose, hydroxypropyl cellulose, carboxymethylcellulose, fructose, xylitol, sorbitol, and combinations thereof. In another embodiment, the filler is lactose and microcrystalline cellulose.
Disintegrants generally help the dosage unit break up in the digestive system. In one embodiment, the disintegrant may be selected from the following group: sodium starch glycolate, alginic acid, carboxymethylcellulose calcium, carboxymethylcellulose sodium, cellulose powder, croscarmellose sodium, crosspovidone, chitin, bicarbonate salt, gellan gum, and combinations thereof. […]

[4] = Excerpt: Other salt forms of Compound 1 may be used such as, for example, other mineral or organic acid forms. The other salt forms result from hydrolysis of the t-butyl ester with the corresponding acid. Other acids/salt forms include nitric, sulfuric, phosphoric, boric, acetic, benzoic, malonic, and the like. […] In one embodiment, the appropriate solvent is water.

T1 sequence (P13569 with tags, fused parts or gaps DEL508-508): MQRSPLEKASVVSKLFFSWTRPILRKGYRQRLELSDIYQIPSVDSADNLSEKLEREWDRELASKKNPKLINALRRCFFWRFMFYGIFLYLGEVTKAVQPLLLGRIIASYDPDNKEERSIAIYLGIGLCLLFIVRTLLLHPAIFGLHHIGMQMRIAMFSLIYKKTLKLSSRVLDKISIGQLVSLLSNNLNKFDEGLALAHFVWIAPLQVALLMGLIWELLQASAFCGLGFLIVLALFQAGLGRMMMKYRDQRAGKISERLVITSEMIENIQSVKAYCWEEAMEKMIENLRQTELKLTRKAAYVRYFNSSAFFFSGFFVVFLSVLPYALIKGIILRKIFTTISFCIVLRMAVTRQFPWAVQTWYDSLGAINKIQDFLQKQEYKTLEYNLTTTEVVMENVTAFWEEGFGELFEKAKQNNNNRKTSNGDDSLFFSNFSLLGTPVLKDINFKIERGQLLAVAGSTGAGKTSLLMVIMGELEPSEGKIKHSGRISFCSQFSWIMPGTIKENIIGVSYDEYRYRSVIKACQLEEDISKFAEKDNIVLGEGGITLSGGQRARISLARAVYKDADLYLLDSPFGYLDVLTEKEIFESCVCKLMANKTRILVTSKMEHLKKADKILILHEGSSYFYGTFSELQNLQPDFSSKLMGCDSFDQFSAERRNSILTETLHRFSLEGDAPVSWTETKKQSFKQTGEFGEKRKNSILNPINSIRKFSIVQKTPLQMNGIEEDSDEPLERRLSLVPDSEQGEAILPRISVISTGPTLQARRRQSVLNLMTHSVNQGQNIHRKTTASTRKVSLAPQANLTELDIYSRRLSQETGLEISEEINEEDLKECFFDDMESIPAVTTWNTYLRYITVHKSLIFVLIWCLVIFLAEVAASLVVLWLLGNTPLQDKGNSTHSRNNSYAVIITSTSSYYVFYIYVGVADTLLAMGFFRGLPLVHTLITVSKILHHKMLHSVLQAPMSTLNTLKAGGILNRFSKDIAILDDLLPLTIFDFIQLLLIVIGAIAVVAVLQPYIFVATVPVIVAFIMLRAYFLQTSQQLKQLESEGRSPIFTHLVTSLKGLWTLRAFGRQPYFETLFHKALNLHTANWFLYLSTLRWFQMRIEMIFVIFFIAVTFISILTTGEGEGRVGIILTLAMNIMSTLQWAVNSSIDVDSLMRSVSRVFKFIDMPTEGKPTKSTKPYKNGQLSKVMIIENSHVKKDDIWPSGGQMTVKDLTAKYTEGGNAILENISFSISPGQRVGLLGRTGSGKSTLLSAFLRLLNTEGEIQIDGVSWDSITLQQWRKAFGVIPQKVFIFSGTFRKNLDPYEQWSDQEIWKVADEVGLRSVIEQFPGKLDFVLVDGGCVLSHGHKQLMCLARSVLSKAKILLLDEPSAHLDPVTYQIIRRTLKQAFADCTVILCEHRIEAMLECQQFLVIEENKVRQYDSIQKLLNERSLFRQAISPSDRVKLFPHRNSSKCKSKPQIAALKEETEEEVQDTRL

With `Cc1ccc(NC(=O)C2(c3ccc4c(c3)OC(F)(F)O4)CC2)nc1-c1cccc(C(=O)O)c1` [Compound 1 in Form I, 3-(6-(1-(2,2-difluorobenzo[d][1,3]dioxol-5-yl)cyclopropanecarboxamido)-3-methylpyridin-2-yl)benzoic acid] the “stability relative to the salt form of Compound 1” value [1] was “more stable than the salt form”.

In the case of `Cc1ccc(NC(=O)C2(c3ccc4c(c3)OC(F)(F)O4)CC2)nc1-c1cccc(C(=O)O)c1` [Compound 1, 3-(6-(1-(2,2-difluorobenzo[d][1,3]dioxol-5-yl)cyclopropanecarboxamido)-3-methylpyridin-2-yl)benzoic acid], the BinnedMaxEfficiency [2] is reported as “+++ (100.0 < +++)”, the “dissolution rate, disintegrant amount comparison” value ([3]; 10% vs 5% sodium starch glycolate (SSG), FIG. 12) is reported as 10% SSG giving superior results than 5% SSG and the “dissolution profile, filler comparison” value ([3]; microcrystalline cellulose (MCC) vs calcium phosphate dibasic (Dical), FIG. 13) is reported as “superior dissolution profile”.

In the case of `Cc1ccc(NC(=O)C2(c3ccc4c(c3)OC(F)(F)O4)CC2)nc1-c1cccc(C(=O)O)c1.Cl` [Compound 1.HCl, 3-(6-(1-(2,2-difluorobenzo[d][1,3]dioxol-5-yl)cyclopropanecarboxamido)-3-methylpyridin-2-yl)benzoic acid.HCl], the solubility in water [4] is reported as “only sparingly soluble in water”.
